# Test results as given in PMC2228596 (The Journal of General Physiology, 1980).
# Where two headings read alike, the source gives them in different places.
# Legend:
# [1] = system: voltage-dependent Na+ channels in excitable membranes; conditions: cited from earlier work; for Opening of Na+ channels: Catterall; for Effect on kinetics of activation and inactivation of Na+ channels: electrophysiology, Khodorov et al.; for Effect on kinetics of activation and inactivation of Na+ channels / Use dependence of activator effects: ref Ulbricht, 1969; for Use dependence of activator effects: intact nerve preparations, Albuquerque et al., Bartels-Bernal et al., 1977, Revenko
# [2] = system: Na+ channels in rat brain synaptosomes; assay type: cell-based
# [3] = system: Na+ channels, neuroblastoma cells; conditions: ref Catterall (1977 b); cited from earlier work
# [4] = system: Na+ channels in rat brain synaptosomes; test: Synaptosome membrane potential; assay type: cell-based
# [5] = system: Na+ channels in synaptosomes; conditions: cited from earlier work; for Synaptosome depolarization: ref VER: Goldring and Blaustein, BTX: Krueger and Blaustein, 1978
# [6] = ref Narahashi and Seyama, 1974, 1977 b
# [7] = ref Albuquerque et al., 1973, 1975
molecule,measurement,setting,value
COC(=O)[C@@H]1[C@H]2C[C@H]3c4[nH]c5ccccc5c4CCN3C[C@@H]2CC[C@@H]1O [yohimbine],Antagonism of Na+ channel openers,"[1]; ref Huang et al., 1978",competitive antagonist of these agents
Grayanotoxin,Opening of Na+ channels,[1]; [6],open Na + channels
"COc1ccc(C(=O)O[C@H]2CC[C@@]3(C)[C@@H]4CC[C@H]5[C@]6(O)C[C@H](O)[C@@]7(O)[C@@H](CN8C[C@@H](C)CC[C@H]8[C@@]7(C)O)[C@]6(O)C[C@@]53O[C@]24O)cc1OC [VER, veratridine]",Maximal effect of VER on Na+ uptake with LqTX,[2]; 0.1 μM LqTX,increased in the presence of LqTX to the same level observed in the presence of 10 ~M BTX
same,Na+ uptake at maximally effective VER with AxTX,[2]; 1 μM AxTX,increased in the presence of AxTX
same,Preference of binding to open over nonopen states,[3],~ 600 times
same,Time to complete depolarizing effect,[4]; data not shown,up to 5 min
same,Depolarization relative to maximally effective BTX or 150 mM K+ (ΔF = 100%),"[4]; highest concentration tested, 300 μM VER, no LqTX",50-60%
same,Effect on kinetics of activation and inactivation of Na+ channels,[1]; 1975,"alter the kinetic properties of the rapid, voltage-sensitive activation and inactivation of Na + channels"
same,Use dependence of activator effects,[1]; 1973,use dependent
same,Opening of Na+ channels,[1]; [7],open TTX-sensitive Na + channels
same,Release of neurotransmitters from synaptosomes,"[5]; ref Blaustein, 1975, Cotman et al., 1976",VER-stimu- lated release of neurotransmitters
same,Ca2+ uptake into synaptosomes,"[5]; ref Blaustein, 1975, Nachshen and Blaustein, 1979",VER-stimulated Ca2+ uptake
same,Uptake of Na+ into synaptosomes,"[5]; ref Li and White (1977), Matthews et al. (1979)","VER-stimulated, TTX-sensitive uptake of Na + into synaptosomes"
same,Synaptosome depolarization,[5]; 1975,induced synaptosome depolarization
anthopleurin-A [AxTX],Potentiation of BTX by AxTX,[2]; 1 μM AxTX,potentiated the effects of BTX without itself greatly increasing Na + uptake
same,Potentiation of VER by AxTX,[2]; 1 μM AxTX,potentiated the effects of VER
same,Effect of AxTX alone on Na+ uptake,[2]; absence of VER or BTX,small increase in Na + uptake
batrachotoxin [BTX],Effect of BTX >0.3 μM in presence of LqTX,[2]; 0.1 μM LqTX,slightly inhibitory
same,BTX-stimulated 22Na influx during the second s of incubation,[2]; 10 μM BTX,slightly less than that during the first s
same,Na+ concentration up to which BTX-stimulated uptake is proportional to Na+,"[2]; 10 μM BTX, 2 s uptake, 2.5-30 mM Na+",up to 5 mM
same,Na+ uptake rate,"[2]; 10 μM BTX, 5 min at 30°C, 5 mM Na+",~ 1 nmol s-1 mg-1
same,Maximal Na+ uptake by BTX without vs with LqTX,[2]; each of three experiments,slightly greater in the absence than in the presence of LqTX
same,Time to isotopic equilibrium,"[2]; presence of 10 μM BTX, 30°C",about 5 s
same,Fluorescence increase in low-Na medium,"[4]; 30 μM BTX, 140 Ch + 5 Na + 5 K, data not shown",same amount as did increasing the external K concentration from 5 to 8 mM
same,Time to complete depolarizing effect,[4]; data not shown,up to 5 min
same,"Maximal depolarization, ΔF (% of 150 mM K+)","[4]; maximally effective concentration of BTX, no LqTX",100%
same,Effect on kinetics of activation and inactivation of Na+ channels,[1]; 1975,"alter the kinetic properties of the rapid, voltage-sensitive activation and inactivation of Na + channels"
same,Use dependence of activator effects,[1]; 1973,use dependent
same,Opening of Na+ channels,[1]; [7],open TTX-sensitive Na + channels
same,Synaptosome depolarization,[5]; 1975,induced synaptosome depolarization
CCN1C[C@]2(COC)[C@H](O)C[C@H](OC)[C@@]34[C@@H]5C[C@@]6(O)[C@H](OC(=O)c7ccccc7)[C@@H]5[C@@](OC(C)=O)([C@@H]([C@H](OC)[C@H]23)[C@@H]14)[C@@H](O)[C@@H]6OC [aconitine],Opening of Na+ channels,[1]; [6],open Na + channels
